In US10512670B2, “Pharmaceutical composition for preventing or treating hair loss comprising chemokine (C-X-C motif) ligand 1 (CXCL1) protein or CXCL1 protein and minoxidil as active ingredient” (SCM LIFESCIENCE CO., LTD., priority 2016, dated 2019):

How the values were obtained:
C3H/HeN mouse [1] = experiment: hair generation test in hair-removed mouse, application of minoxidil and CXCL1 protein to back skin; type: in vivo; conditions: applied to back skin for 14 days (FIG. 5); PBS-alone 20 mg
Procedure: In addition, in the case of combining and using the minoxidil and the CXCL1 protein which were commercialized as a hair generation agent, an experiment for verifying whether the hair generation effect may be better was performed. First, for an experiment for hair regeneration, long hair of a 7-week-old C3H/HeN mouse and the like was shortly cut by using a hair cutting machine and thereafter, the hair was completely removed by using a hair removal agent. After the hair-removed mouse was stabilized for one day, a recombinant protein CXCL1 was mixed with 2% minoxidil (Women's Rogaine, Johnson & Johnson Healthcare Products, USA) to be 1 μg/ml and 10 μg/ml, respectively. The mixture of the minoxidil and the CXCL1 protein was applied to the back skin of the hair-removed mouse for 14 days by […] per day. As a control, a PBS-alone applied group and a 2% minoxidil-alone treated group were set. The hair generation in the back of the mouse was tracked and observed for 14 days and newly generated hair was obtained again and the weight was measured, and the result was illustrated in FIGS. 4 and 5.

[2] = tested on: human dermal papilla cell (DPC); experiment: human dermal papilla cell (DPC) proliferation test; type: cell-based; conditions: 1 ng/ml or 5 ng/ml treated to DPC, 40 hrs, compared to cells without CXCL1 protein (FIG. 1)
Procedure: A human dermal papilla cell (DPC) proliferation test which is a representative in vitro cell test system for measuring hair proliferation was performed. 1 ng/ml or 5 ng/ml of the CXCL1 protein in Example 1 was treated to DPC, proliferation for 40 hrs was measured, and the result was illustrated in FIG. 1.

C3H/HeN mouse [3] = experiment: hair generation test in hair-removed mouse, subcutaneous injection of CXCL1 protein; type: in vivo
Procedure: For a test for verifying a hair generation effect, the back of a 7-week-old C3H/HeN mouse was stabilized by removing hair by using a hair removal agent. After one day, 100 ng/ml of a human chemokine (C-X-C motif) ligand 1 (CXCL1) (SEQ ID NO:1) protein was subcutaneously injected to the back once. As a control, phosphate buffered saline (PBS) including 0.1% BSA at the same volume lysed with the CXCL1 protein was subcutaneously injected. Thereafter, the hair generation of the back of the hair-removed mouse was traced and observed for 15 days. A photograph of tracing and observing the back of the mouse with hair generation was illustrated in FIG. 2.
Further, after 15 days, the hair of the back of the mouse with newly hair generation was removed by using a knife and then the result of measuring the weight of the obtained hair was illustrated in FIG. 3.

| Molecule | amount of newly generated hair (C3H/HeN mouse [1]) | cell proliferation [2] | hair weight (C3H/HeN mouse [3]; 100 ng/ml subcutaneously injected once, newly generated hair after 15 days (FIG. 3), control 40 mg) | hair generation of the back (photograph) (C3H/HeN mouse [3]; 100 ng/ml subcutaneously injected to the back once, observed for 15 days, compared with control (FIG. 2)) | new hair relative to PBS-administered group (C3H/HeN mouse [3]; CXCL1 protein-alone administration) |
| --- | --- | --- | --- | --- | --- |
| Nc1cc(N2CCCCC2)nc(N)[n+]1[O-] [minoxidil] | about 30 mg | – | – | – | – |
| chemokine (C-X-C motif) ligand 1 (CXCL1) [CXCL1 protein] | – | cell proliferation was increased | 80 mg | hair generation was more excellent | about two times greater |
